Data reported in patent US20070135399A1, “Heteroaromatic sulphonamide prodrugs” (priority 2005, published 2007).
Where two headings read alike, the source gives them in different places.

Legend:
[1] = target: human carboanhydrase II (Homo sapiens, UniProt P00918); experiment: Carboanhydrase inhibition, photometric, nitrophenyl acetate conversion (CA II); format: biochemical
Excerpt: (§1) a) Carboanhydrase Inhibition
(§2) Photometric determination of the inhibition of human carboanhydrase I or II by sulphonamides or sulphamates on microtitre plates with the aid of the enzymatic conversion of nitrophenyl acetate with a colour change from colourless to yellow.

[2] = target: human carboanhydrase I (Homo sapiens, UniProt P00915); experiment: Carboanhydrase inhibition, photometric, nitrophenyl acetate conversion (CA I); format: biochemical
Excerpt: as §1, §2

[3] = Blood-plasma concentration ratio in heparinized rat blood
Protocol: b) Blood-plasma concentration ratio—test principle and experimental description:
The blood-plasma ratio is calculated from the measured concentration and the theoretical concentration.

[4] = human carboanhydrase II, read-out: CA II IC50
[5] = human carboanhydrase I, read-out: CA I IC50
[6] = freshly obtained heparinized whole blood

Chain of human carboanhydrase I (P00915 whole entry): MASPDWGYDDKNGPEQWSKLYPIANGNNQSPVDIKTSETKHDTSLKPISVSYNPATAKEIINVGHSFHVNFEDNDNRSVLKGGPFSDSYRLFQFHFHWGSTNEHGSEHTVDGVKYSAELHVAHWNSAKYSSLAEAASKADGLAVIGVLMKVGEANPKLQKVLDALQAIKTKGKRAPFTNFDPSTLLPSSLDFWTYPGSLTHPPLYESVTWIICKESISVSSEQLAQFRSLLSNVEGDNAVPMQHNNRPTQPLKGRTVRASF

SMILES	IC50 [1, 4] [nM]	IC50 [2, 5] [nM]	blood plasma ratio [3, 6]	IC50 [1] [nM]	blood plasma ratio [3]	IC50 [2] [nM]	Blood/plasma ratio
C[C@]12CC[C@@H]3c4ccc(O)cc4CC[C@H]3[C@@H]1CC[C@@H]2OC(=O)c1ccc(S(N)(=O)=O)nc1 [Compound 1, 3-Hydroxyoestra-1,3,5(10)-trien-17β-yl 6′-sulphamoylnicotinate]	31	2900					
C[C@]12CC[C@@H]3c4ccc(O)cc4CC[C@H]3[C@@H]1CC[C@@H]2OC(=O)c1cncc(S(N)(=O)=O)c1 [Compound 2, 3-Hydroxyoestra-1,3,5(10)-trien-17β-yl 5′-sulphamoylnicotinate]	160	2100	2				
CCc1sc(S(N)(=O)=O)cc1C(=O)O[C@H]1CC[C@H]2[C@@H]3CCc4cc(O)ccc4[C@H]3CC[C@]12C [Compound 3, 3-Hydroxyoestra-1,3,5(10)-trien-17β-yl 2′-ethyl-5′-sulphamoylthiophene-3′-carboxylate]	42	3400	1.8				
C[C@]12CC[C@@H]3c4ccc(O)cc4CC[C@H]3[C@@H]1CC[C@@H]2OC(=O)c1cc(S(N)(=O)=O)sc1Br [Compound 4, 3-Hydroxyoestra-1,3,5(10)-trien-17β-yl 2′-bromo-5′-sulphamoylthiophene-3′-carboxylate]	47	3300	9.5				
C[C@]12CC[C@H]3[C@@H](CCC4=CC(=O)CC[C@@]43C)[C@@H]1CC[C@@H]2OC(=O)c1ccc(S(N)(=O)=O)nc1 [Compound 5, 3-Oxoandrost-4-en-17β-yl 6′-sulphamoylnicotinate]				41	3.6	3200	
C[C@]12CC[C@H]3[C@@H](CCC4=CC(=O)CC[C@@]43C)[C@@H]1CC[C@@H]2OC(=O)c1cncc(S(N)(=O)=O)c1 [Compound 6, 3-Oxoandrost-4-en-17β-yl 5′-sulphamoylnicotinate]				250	5.7	2900	
C[C@]12CC[C@@H]3c4ccc(OS(N)(=O)=O)cc4CC[C@H]3[C@@H]1CC[C@@H]2O [Oestradiol 3-sulphamate, reference compound]	34	157 ± 10.6					About 50
